# Source: ChEMBL document CHEMBL4396974, “Synthesis and evaluation of a novel quinoline-triazole analogs for antitubercular properties via molecular hybridization approach” (Bioorg Med Chem Lett, 2019)
# Activity calls are given as the source filed them. The calls are words filed in the database; no cut-off is given here.
# Test system: Mycobacterium tuberculosis variant bovis
# Test: Antimycobacterial activity against Mycobacterium bovis assessed as 90 percent growth inhibition measured after 120 hrs by turbidometric analysis
# Type: functional
row,SMILES,MIC90
1,CCCCCc1cn(C(c2ccccc2)c2cc3cc(Br)ccc3nc2OC)nn1 (configuration not stated),80.9 µM
2,CCCCCCc1cn(C(c2ccccc2)c2cc3cc(Br)ccc3nc2OC)nn1 (configuration not stated),44.4 µM
3,CCCCCCCCc1cn(C(c2ccccc2)c2cc3cc(Br)ccc3nc2OC)nn1 (configuration not stated),34.9 µM
4,COc1nc2ccc(Br)cc2cc1C(c1ccccc1)n1cc(-c2cccc(F)c2)nn1 (configuration not stated),31.4 µM
5,COc1nc2ccc(Br)cc2cc1C(c1ccccc1)n1cc(CCO)nn1 (configuration not stated),133 µM
6,COc1nc2ccc(Br)cc2cc1C(c1ccccc1)n1cc(CO)nn1 (configuration not stated),131 µM
7,COc1nc2ccc(Br)cc2cc1C(c1ccccc1)n1cc(-c2ccccc2C(F)(F)F)nn1 (configuration not stated),174 µM
8,CCCCc1cn(C(c2ccccc2)c2cc3cc(Br)ccc3nc2OC)nn1 (configuration not stated),50.2 µM
9,COc1nc2ccc(Br)cc2cc1[C@@H](c1ccccc1)[C@@](O)(CCN(C)C)c1cccc2ccccc12 [BEDAQUILINE],0.15 µM
10,CCCCCCCc1cn(C(c2ccccc2)c2cc3cc(Br)ccc3nc2OC)nn1 (configuration not stated),71.9 µM
11,COc1nc2ccc(Br)cc2cc1C(c1ccccc1)n1cc(-c2ccccc2)nn1 (configuration not stated),161 µM
12,COc1nc2ccc(Br)cc2cc1C(c1ccccc1)n1cc(-c2ccccc2F)nn1 (configuration not stated),inactive
13,COc1nc2ccc(Br)cc2cc1C(c1ccccc1)n1cc(-c2ccc(Br)cc2)nn1 (configuration not stated),49 µM
14,CCCc1cn(C(c2ccccc2)c2cc3cc(Br)ccc3nc2OC)nn1 (configuration not stated),45.2 µM
15,COc1nc2ccc(Br)cc2cc1C(c1ccccc1)n1cc(-c2ccc(F)cc2)nn1 (configuration not stated),inactive
16,NNC(=O)c1ccncc1 [ISONIAZID],12.5 µM
17,COc1nc2ccc(Br)cc2cc1C(c1ccccc1)n1cc(-c2ccc(OC(F)(F)F)cc2)nn1 (configuration not stated),41 µM
18,COc1nc2ccc(Br)cc2cc1C(c1ccccc1)n1cc(CCCCCO)nn1 (configuration not stated),59.6 µM
19,CO[C@H]1/C=C/O[C@@]2(C)Oc3c(C)c(O)c4c(O)c(c(/C=N/N5CCN(C)CC5)c(O)c4c3C2=O)NC(=O)/C(C)=C\C=C\[C@H](C)[C@H](O)[C@@H](C)[C@@H](O)[C@@H](C)[C@H](OC(C)=O)[C@@H]1C [RIFAMPIN],2.2 µM
20,CCOC(=O)c1cn(C(c2ccccc2)c2cc3cc(Br)ccc3nc2OC)nn1 (configuration not stated),inactive
21,COc1nc2ccc(Br)cc2cc1C(c1ccccc1)n1cc(C2CC2)nn1 (configuration not stated),inactive
22,COc1nc2ccc(Br)cc2cc1C(c1ccccc1)n1cc(CCCO)nn1 (configuration not stated),inactive
